Reference: article PMC13626384 (Journal of medicinal chemistry, 2025)
“Also recorded” adds a separate entry of the source. Read-outs that look alike come from different tables or passages of the source. Marks after values point to notes of the source that are not given here. Blank lines part the entries; values can stand above or below the compound they belong to.

Assays:
in vitro = settings: mouse liver microsomes
[1] = Liver microsomal stability; settings: mouse liver microsomes
SF188 cell line = test: Cytotoxicity against SF188 cells; assay type: cell-based, human
[2] = Caco-2 cell permeability and efflux; assay type: in vitro ADME, human; settings: human
Plasma stability = assay type: in vitro ADME; settings: for Plasma Stability % remaining: mouse plasma
[3] = PAMPA-BBB permeability assay; settings: PAMPA-BBB
Caco-2 cells [4] = settings: ref Literature data; cited from earlier work
D283-med cell line = test: Cytotoxicity against D283-med cells; assay type: cell-based, human
mice = test: Toxicity observation in the PK study; assay type: in vivo; settings: 1 mg/kg i.v., 1 mg/kg
[5] = biological target: human immunoproteasome (i20S) β2 (Homo sapiens, UniProt P40306+P49720); test: Proteasome subunit inhibition, i20S β2; assay type: biochemical; settings: read-out: i20S β2 IC50 ± SD; read 60 to 90 minutes after start
[6] = biological target: human immunoproteasome (i20S) β1 (Homo sapiens, UniProt P28065+P40306); test: Proteasome subunit inhibition, i20S β1; assay type: biochemical; settings: read-out: i20S β1 IC50 ± SD; read 60 to 90 minutes after start
[7] = biological target: human immunoproteasome (i20S) β5 (Homo sapiens, UniProt P20618+P28062); test: Proteasome subunit inhibition, i20S β5; assay type: biochemical; settings: read-out: i20S β5 IC50 ± SD; read 60 to 90 minutes after start
H460 cell line = test: Cytotoxicity against H460 cells; assay type: cell-based; settings: read-out: H460 IC50; non-small cell lung cancer cell line
Caco-2 cells [8] = test: Caco-2 cell permeability and efflux; assay type: in vitro ADME, human; settings: for % Recovery (A-B): Caco-2, A-B direction; for % Recovery (B-A): Caco-2, B-A direction; for Pe (A-B): Caco-2, apical to basolateral; for Pe (B-A): Caco-2, basolateral to apical
[9] = In vivo pharmacokinetics, plasma and brain; design: species or system Male C57BL/6 mice; settings: mice
[10] = tested on: human foreskin fibroblasts (HFF-1) cell line; test: Cytotoxicity against HFF-1 cells; assay type: cell-based; settings: read-out: HFF-1 IC50; non-cancerous fibroblasts
[11] = Homo sapiens, SF-188, read-out: SF188 IC50, glioblastoma cell line
[12] = read-out: SF188 IC50, glioblastoma cell line
[13] = mouse, plasma, Plasma Stability % remaining, after 2 hr
[14] = read-out: D283-med IC50, medulloblastoma cell line

half-life (in vitro): < 5 min
Microsomal Stability Clearance Category [1]: High
Papp B→A ([2]; Caco-2): 1.3 ×10⁻⁶ cm/s
recovery ([2]; Caco-2, % Recovery (A-B), Caco-2, A-B direction): 27%
recovery ([2]; Caco-2, % Recovery (B-A), Caco-2, B-A direction): 42%
remaining at 2 h (Plasma stability; [13]): > 99%
remaining at 5 h (Plasma stability; mouse, plasma, Plasma Stability % remaining, after 5 hr): > 75%
Structure (SMILES): CC(C)C[C@H](NC(=O)C(CSc1c(F)c(F)c(F)c(F)c1F)NC(=O)[C@@H](NC(=O)c1cc(Cl)ccc1Cl)C(C)C)C(=O)[C@@]1(C)CO1 (stereo in doubt) [Compound 4, 2,5-Dichloro-N-((S)-3-methyl-1-(((S)-1-(((S)-4-methyl-1-((R)-2-methyloxiran-2-yl)-1-oxopentan-2-yl)amino)-1-oxo-3-((perfluorophenyl)thio)propan-2-yl)amino)-1-oxobutan-2-yl)benzamide]
IC50 (SF188 cell line; [11]): < 200 nM
IC50 (SF188 cell line; [12]): 192 ± 70 nM

Structure (SMILES): CC(C)C[C@H](NC(=O)[C@H](CCc1ccccc1)NC(=O)CN1CCOCC1)C(=O)N[C@@H](Cc1ccccc1)C(=O)N[C@@H](CC(C)C)C(=O)[C@@]1(C)CO1 [Carfilzomib, reference compound]
half-life (in vitro): < 5 min
recovery ([3]; PAMPA, % Recovery): 41%
Papp ([3]; PAMPA, Mean Permeability): 1.43 ×10⁻⁶ cm/s
Microsomal Stability Clearance Category [1]: High
IC50 (SF188 cell line; [11]): 706 ± 82 nM
Efflux Ratio (Caco-2 cells [4]): 28.6*
IC50 (D283-med cell line; Homo sapiens, D283 Med, read-out: D283-med IC50, medulloblastoma cell line): 205 ± 24 nM
remaining at 2 h (Plasma stability; [13]): 99%

Structure (SMILES): CC(C)C[C@H](NC(=O)[C@@H]1Cc2c(F)c(F)c(c(F)c2F)Sc2cccc(c2)CC(=O)N[C@@H](C(C)C)C(=O)N1)C(=O)[C@@]1(C)CO1 [Compound 10, (5S,8S)-3^2,3^3,3^5,3^6-Tetrafluoro-8-isopropyl-N-((S)-4-methyl-1-((R)-2-methyloxiran-2-yl)-1-oxopentan-2-yl)-7,10-dioxo-2-thia-6,9-diaza-1(1,3),3(1,4)-dibenzenacycloundecaphane-5-carboxamide]
Signs of toxicity (mice): no signs of toxicity were observed; also recorded: lack of toxicity
IC50 [5]: 464 ± 50.1 nM
IC50 [6]: 163 ± 14.9 nM
% Recovery [3]: 49%
Mean Permeability [3]: 3.48 10^−6 cm/sec
Pe (effective permeability) [3]: around 4 10^−6 cm s^−1
Microsomal Stability Clearance Category [1]: High
Microsomal Stability mCLint [1]: 202 µL/min/mg
IC50 [7]: 532 ± 56.9 nM
IC50 (SF188 cell line; [12]): 123 ± 8 nM
IC50 (H460 cell line): 2590 nM
IC50 (D283-med cell line; [14]): 17 ± 7 nM
Efflux Ratio (Caco-2 cells [8]; Caco-2): 1.4
% Recovery (A-B) (Caco-2 cells [8]): 83%
% Recovery (B-A) (Caco-2 cells [8]): 75%
Pe (A-B) (Caco-2 cells [8]): 25.1 10^−6 cm/sec
Pe (B-A) (Caco-2 cells [8]): 34.4 10^−6 cm/sec
Mean B/P ratio ([9]; 1 mg/kg i.v., 1.0 h): 0.78
Mean Brain Con ([9]; 1 mg/kg i.v., 1.0 h): 12.0 ng/g
Mean Plasma Conc. ([9]; 1 mg/kg i.v., 1.0 h): 16.8 ng/mL
Mean Plasma Conc. ([9]; 1 mg/kg i.v., 4.0 h): 5.4 ng/mL
Mean Brain Con ([9]; 1 mg/kg i.v., 4.0 h, LLOQ 2.00 ng/mL, 1 mg/kg): below the limit of quantification and BLQ
Plasma Cmax ([9]; 1 mg/kg i.v., earliest time point): 423 ng/mL
Plasma Stability % remaining (Plasma stability; after 2 hr): 98 after 2 hr %
Plasma Stability % remaining (Plasma stability; after 5 hr): more than 75%

Structure (SMILES): CC(C)C[C@H](NC(=O)[C@@H]1Cc2c(F)c(F)c(c(F)c2F)S(=O)(=O)c2cccc(c2)CC(=O)N[C@@H](C(C)C)C(=O)N1)C(=O)[C@@]1(C)CO1 [Compound 11, (5S,8S)-3^2,3^3,3^5,3^6-Tetrafluoro-8-isopropyl-N-((S)-4-methyl-1-((R)-2-methyloxiran-2-yl)-1-oxopentan-2-yl)-7,10-dioxo-2-thia-6,9-diaza-1(1,3),3(1,4)-dibenzenacycloundecaphane-5-carboxamide 2,2-dioxide]
IC50 [5]: 829 ± 187 nM
IC50 [6]: 379 ± 47.7 nM
% Recovery [3]: 64%
Mean Permeability [3]: 2.15 10^−6 cm/sec
Microsomal Stability Clearance Category [1]: Medium
Microsomal Stability mCLint [1]: 43 µL/min/mg
Microsomal Stability t1/2 [1]: 32 min
IC50 [7]: 830 ± 260 nM
IC50 (SF188 cell line; [12]): 9.8 ± 1.2 nM
IC50 (H460 cell line): 79 ± 20 nM
IC50 (D283-med cell line; [14]): 6 ± 2 nM
% Recovery (A-B) (Caco-2 cells [8]): 91%
% Recovery (B-A) (Caco-2 cells [8]): 97%
Pe (A-B) (Caco-2 cells [8]): 7.2 10^−6 cm/sec
Pe (B-A) (Caco-2 cells [8]): 45.4 10^−6 cm/sec
IC50 [10]: 85 ± 7 nM
Plasma half-life ([9]; 10 mg/kg i.v., with and without tariquidar): 72 to 84 min
Brain tissue concentration ([9]; 10 mg/kg i.v., with and without tariquidar, 30 minutes and 2 hours): no quantifiable concentrations were detected
Plasma Stability % remaining (Plasma stability; after 2 hr): 88%
